Data from PubChem BioAssay (NCI).
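Method: 48-hour compound exposure of cells in 96-well plates, five concentrations, linear interpolation of endpoints. GI50 is the concentration that inhibits growth by half. Definition used: TGI = concentration required for complete inhibition of growth.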

How the values were obtained:
Assay in all cases: NCI tumour cell line growth inhibition, 48 h
MDA-MB-435 = test system: MDA-MB-435
SN12C renal = test system: SN12C renal
RPMI-8226 leukemia = test system: RPMI-8226 leukemia
SF-539 CNS = test system: SF-539 CNS
HCC-2998 colon = test system: HCC-2998 colon
SK-MEL-5 melanoma = test system: SK-MEL-5 melanoma
HCT-116 colon = test system: HCT-116 colon
HCT-15 colon = test system: HCT-15 colon

| SMILES | GI50 (MDA-MB-435) [µM] | TGI (MDA-MB-435) [µM] | GI50 (SN12C renal) [µM] | TGI (SN12C renal) [µM] | GI50 (RPMI-8226 leukemia) [µM] | TGI (RPMI-8226 leukemia) [µM] | GI50 (SF-539 CNS) [µM] | TGI (SF-539 CNS) [µM] | GI50 (HCC-2998 colon) [µM] | TGI (HCC-2998 colon) [µM] | GI50 (SK-MEL-5 melanoma) [µM] | TGI (SK-MEL-5 melanoma) [µM] | GI50 (HCT-116 colon) [µM] | TGI (HCT-116 colon) [µM] | GI50 (HCT-15 colon) [µM] | TGI (HCT-15 colon) [µM] |
| --- | --- | --- | --- | --- | --- | --- | --- | --- | --- | --- | --- | --- | --- | --- | --- | --- |
| CCN(c1cc(-c2ccc(CN3CCOCC3)cc2)cc(C(=O)NCc2c(C)cc(C)[nH]c2=O)c1C)C1CCOCC1 | 17.4 | 34.6 | 26.9 | > 64.5 | 20 | > 59.8 | 16.3 | 33.2 | 20.4 | 49.7 | 16.3 | 31.7 | 18.5 | 40.3 | 19.2 | 48.4 |
| Cn1cc(-c2ccc3nnc(Sc4ccc5ncccc5c4)n3n2)cn1 | > 100 | > 100 | > 73.9 | > 100 | 41.2 | > 100 | > 93.4 | > 100 | > 100 | > 100 | > 74.3 | > 100 | 53 | > 100 | > 100 | > 100 |
| COC(=O)C1C(O)C(C)C(O)C(C)C=C(C)C2=C3C(=C(C)C(=O)c4c(O)c(c(C)c(OC(C)=O)c43)NC(=O)C(C)=C/C=C\C(C)C(O)C(C)C1O)OCO2 (configuration not stated) |  | 30.4 |  | > 100 |  | 55.3 |  | > 100 |  | > 100 |  | 39.4 |  | > 100 |  | 65.9 |
| CN(C)CCSS(=O)(=O)O |  | > 100 |  | > 100 |  | > 100 |  | > 100 |  |  |  | > 100 |  | > 100 |  | > 100 |
| Cc1nc(Nc2cccnc2)sc1C(=O)/C=C/c1ccc(Cl)cc1 | 2.26 | 6.46 | 2.91 | 9.13 | 2.5 | 9.03 | 2.03 | 5.26 | 3.06 | 10.5 | 4.59 | 35.5 | 1.85 | 5.03 | 1.59 | 4.03 |
| C1CC2CN(CCCN3CCOCC3)C(C1)O2 (configuration not stated) |  | > 100 |  | > 100 |  | > 100 |  | > 100 |  |  |  | > 100 |  | > 100 |  | > 100 |
| S=c1nc(N/N=C/c2ccco2)c2cn[nH]c2[nH]1 | 45.7 | > 100 | 83.7 | > 100 | 18.2 | > 100 | 43.3 | > 100 | 22.4 | 88.7 | 28.2 | > 100 | 25 | > 100 | 50 | > 100 |
| COC(=O)COc1ccc(/C=C2/N=C(c3ccccc3)N(c3c(C)n(C)n(-c4ccccc4)c3=O)C2=O)cc1 | 19.7 | 47 | 22.5 | 49 | 21.7 | 44.8 | 16.1 | 30.2 | 16.9 | 33.4 | 26 | 60.7 | 32.4 | > 100 | 66.5 | > 100 |
| O=C([O][Sn]([O]C(=O)c1ccccn1)([c]1ccccc1)[c]1ccccc1)c1ccccn1 | 2.29 | 6.04 | 13.8 | 26.9 | 1.86 | 6.13 | 6.65 | 19.7 | 13.1 | 26 | 12.1 | 24.4 | 1.71 | 3.11 | 6.95 | 20.4 |
| O=c1/c(=C\c2ccc(F)cc2)sc2n1C(c1ccc(F)cc1)C1=C(N=2)c2ccc3ccccc3c2OCC1 (configuration not stated) | > 100 | > 100 | > 100 | > 100 | > 100 | > 100 | > 100 | > 100 | > 100 | > 100 | > 100 | > 100 | > 100 | > 100 | 7.17 | > 100 |
| COc1ccc(-c2nc(-c3nc4ccc(F)cc4[nH]3)c3ccccn23)cc1 | 8.05 | > 100 | 13.3 | > 100 | 2.86 | > 100 | 10.4 | 45.2 | 6.59 | > 100 | 2.2 | 6.71 | 3.61 | 17.8 | 33.6 | > 100 |
| COc1cc2c(cc1OC)C(=O)/C(=C/c1cc(-c3ccc4c(c3)OCO4)n[nH]1)C2 | 1.73 | 3.27 | 1.59 | 2.99 | 0.233 | 0.623 | 1.27 | 2.57 | 1.88 | 3.44 | 1.67 | 3.06 | 1.03 | 2.55 | 1.12 | 2.81 |
| O=C(Nn1c(-c2ccccc2)nc2ccccc2c1=O)c1ccccc1O |  | > 100 |  | > 100 |  | > 100 |  | > 100 |  | > 100 |  | 84.3 |  | > 100 |  | > 100 |
| Cc1c2c(c(C)c3c4c(oc13)CCCC4)C=NCC2 |  | 29.3 |  | 31.7 |  | 43 |  | 28.9 |  | 36.1 |  | 30.8 |  | 35.9 |  | 34.4 |
| C1CC[N-]CC1.CC(=N\O)/C(C)=N/O.CC(=N\O)/C(C)=N/O.OC1[CH-]CCCC1.[Co+2] | 33.9 | > 100 | 53.7 | > 100 | 42.4 | > 100 | 25.5 | 71.1 |  |  | 34.6 | > 100 | 30.3 | > 100 | 65.5 | > 100 |
| Cc1ccc(S(=O)(=O)c2nc(-c3ccccc3)oc2S(C)=O)cc1 (configuration not stated) | 1.53 | 3.04 | 1.68 | 3.43 | 1.4 | 4.13 | 1.55 | 3.01 | 16.4 | 30.4 |  |  | 1.49 | 2.89 |  |  |
| COc1cc(C)c(C2NC(=O)c3ccccc3N2)cc1C (configuration not stated) |  | 0.209 |  | > 100 |  |  |  | 0.734 |  | 25.9 |  | 5.49 |  | 43.1 |  | 10 |
| O=c1[nH]c2ccccc2n1CCCN1CCC(n2c(=O)[nH]c3cc(Cl)ccc32)CC1 |  | 29.7 |  | 30.6 |  | 57.8 |  |  |  | 30.4 |  | 29.1 |  | 31.4 |  | 39.9 |
